Assays:
HRP [1] = biological target: T1, HRP (Armoracia rusticana, UniProt P00433); assay: Comparison of signal intensity (Example 9): chemiluminescence on reaction of reagent with HRP; assay type: biochemical, horseradish; details: 3.5×10^−16 moles of HRP
T1 sequence (P00433 31-338): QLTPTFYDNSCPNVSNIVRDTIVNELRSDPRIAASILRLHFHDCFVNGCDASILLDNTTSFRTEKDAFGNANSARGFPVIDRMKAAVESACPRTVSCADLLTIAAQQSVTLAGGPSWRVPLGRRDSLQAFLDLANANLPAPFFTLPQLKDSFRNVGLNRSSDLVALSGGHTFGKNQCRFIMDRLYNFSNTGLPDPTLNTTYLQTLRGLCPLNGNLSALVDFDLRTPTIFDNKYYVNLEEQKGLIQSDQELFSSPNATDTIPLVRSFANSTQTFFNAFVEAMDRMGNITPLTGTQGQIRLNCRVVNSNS
Method: Reagent compositions comprising 0.01 M tris buffer, pH 8, 0.5 mM urea peroxide, 0.1 mM p-phenylphenol, […], 0.025% Tween 20, and 5×10^−5 M of each compound in the table below except the compound designated Ref. 1 were tested for production of chemiluminescence by reacting a 100 μL aliquot with 3.5×10^−16 moles of HRP. The reagent formulation for Ref. 1 comprised 0.05 M tris buffer, pH 8.6, 0.25 mM urea peroxide, 0.05 mM p-phenylphenol, 0.5 mM EDTA, 0.0125% Tween 20, and 3.3×10^−4 M Ref. 1. For comparison, data are provided for reference compounds 1 and 2.

HRP [2] = biological target: T1, HRP; assay: Chemiluminescent detection of HRP with compound 1; assay type: biochemical, horseradish
Method: Reagent compositions comprising 0.01 M tris buffer, pH 7.0, 0.5 mm urea peroxide, 0.1 mM p-phenylphenol, 1 mM EDTA, 0.025% Tween 20 and 5×10^−5 M compound 1 were tested for production of chemiluminescence by reacting triplicate 100 μL aliquots with 10 μL of HRP in the range 1.4×10^−15 to 1.4×10^−20 moles. Light production ensued upon mixing and reached maximum intensity in about 1 min.

HRP-labeled antibody = biological target: T2, HRP-labeled antibody (Armoracia rusticana, UniProt P00433); assay: Western blot of β-galactosidase via HRP-labeled antibody on PVDF membrane; assay type: biochemical
T2 sequence (P00433 31-338): T1 sequence (P00433 31-338)
Method: A western blot assay of β-galactosidase as the test antigen was conducted according to the procedure described in U. K. Laemmli, Nature (London), 227, 680 (1970) using a PVDF membrane. β-Galactosidase standards in the range of 5000-5 pg. The detection reagent containing Compound 1 permitted detection to be performed in under 1 minute.

peroxidase = assay: Chemiluminescence on reaction with peroxide and a peroxidase (general); assay type: biochemical; details: mixtures of double bond isomers
Text: Reaction of ketene dithioacetal compounds of formula I, including those shown above, with peroxide and a peroxidase generate chemiluminescence which rapidly reaches very high intensity. Maximum light emission is achieved in one minute or less and remains constant for several minutes. […] No other known chemiluminescent peroxidase substrate generates high intensity chemiluminescence so rapidly. This kinetic behavior in unexpected and contrasts with the chemiluminescence time profile of structurally related compounds disclosed in the aforementioned U.S. Pat. No. 5,922,558. For example, a compound having the formula:
[drawing 18] reacted with HRP was disclosed to reach maximum chemiluminescence intensity in 7 min. The ability of the compounds of the present invention to reach a stable maximum light intensity so rapidly makes them more suitable than other chemiluminescent compounds for peroxidase detection in the rapid high throughput assays in demand today.
Compounds and compositions of the present invention are useful in a method to produce chemiluminescence by reaction with a peroxidase. Reaction of a compound of the invention with a peroxidase and a peroxide in an aqueous buffer solution produces easily detectable visible chemiluminescence. Light intensity reaches a maximum level rapidly at room temperature, typically in about 1 minute. […]

HRP [3] = biological target: T1, HRP; assay: Comparison of signal intensity (Example 10): maximum signal with HRP; assay type: biochemical, horseradish; details: 3×10^−4 M compound, 0.025 M tris pH 8, 2.5 mM urea peroxide, 4 mM p-hydroxycinnamic acid; 3.5×10^−16 moles of HRP
Method: (§1) The maximum signal produced by each of compounds 14, and 27-29 was compared by reacting a 100 μL aliquot of reagent compositions comprising 0.025 M tris buffer, pH 8, 2.5 mM urea peroxide, 4 mM p-hydroxycinnamic acid, 0.5 mM EDTA, 0.1% Tween 20, and 3×10^−4 M of the test compound with 3.5×10^−16 moles of HRP. Each reagent reached maximum light intensity in about 1 minute.

HRP [4] = biological target: T1, HRP; assay: Comparison of signal intensity (Example 17): maximum signal with HRP; assay type: biochemical, horseradish; details: 3.5×10^−16 moles of HRP
Method: as §1, with “40-51” for “14, and 27-29”, “either 1 mM, 0.3 mM, 0.15 mM or 0.05 mM” for “3×10^−4 M”, “1-3 minutes.” for “about 1 minute.”

[5] = Solubility in the aqueous formulation; assay type: physicochemical; details: 0.025 M tris pH 8 formulation with 0.1% Tween 20
HRP [6] = biological target: T1, HRP; assay: Chemiluminescent detection of HRP with compounds 52 and 53; assay type: biochemical, horseradish; details: 3×10^−4 M compound, HRP 1.4×10^−16 to 1.4×10^−21 moles
Method: Reagent compositions comprising 0.025 M tris buffer, pH 8.0, 2.5 mM urea peroxide, 4 mM p-hydroxycinnamic acid, 0.5 mM EDTA, 0.1% Tween 20 and 3×10^−4 M compound 52 or 53 were tested for production of chemiluminescence by reacting triplicate 100 μL aliquots with 10 μL of HRP in the range 1.4×10^−16 to 1.4×10^−21 moles. […] The relation between peak chemiluminescence intensity and amount of enzyme is depicted in FIG. 8.

HRP [7] = biological target: T1, HRP; assay: Stability of working solutions by solution assay; assay type: physicochemical, horseradish
Method: Reagent stability of the working solutions of compound 53 and compound 46 was assessed by preparing the working solution by combining 50 μL aliquots of the two component solutions and storing the mixed solutions at 4° C. or room temperature. The working solution contained 0.025 M tris buffer, pH 8, 2.5 mM urea peroxide, 4 mm p-hydroxycinnamic acid, 0.5 mM EDTA, 0.1% Tween 20, and 0.05 mM of the substrate. Chemiluminescent assays were run with 3.5×10^−16 moles of HRP at 25° C. Maximum intensity results were compared to the values obtained with fresh reagent prepared from the individual components stored at 4° C. […] The composition containing compound 53 was unchanged after four months at 4° C., that containing compound 46 was unchanged after 9 months at 4° C.

[8] = 5×10^−5 M compound, 0.01 M tris pH 8, 0.5 mM urea peroxide, 0.1 mM p-phenylphenol, 0.025% Tween 20
[9] = 1 mM test compound (Formulation 1.0)

With `CSC(SC)=C1c2ccccc2N(c2ccccc2)c2ccccc21` [Compound 1] as the molecule, how does the Signal/Background (HRP [1]; [8]) read?
Its Signal/Background is 8060.

And the “time to reach maximum intensity” value (HRP [2]; 5×10^−5 M compound 1, pH 7.0, p-phenylphenol)?
Its value is “about 1 min”.

What about the “log-log plot of chemiluminescence intensity vs. amount of enzyme” value (HRP [2]; HRP 1.4×10^−15 to 1.4×10^−20 moles) of the same molecule?
Its value is “linear over the entire range tested”.

What about the “lower abundance bands able to be imaged” value (HRP-labeled antibody; β-galactosidase) of the same molecule?
Its value is ≤ 1 pg.

And the “time in which detection could be performed” value (HRP-labeled antibody; β-galactosidase standards 5000-5 pg)?
Its value is “under 1 minute”.

With `CSC(SC)=C1c2ccccc2N(C)c2ccccc21` [Compound 2] as the molecule, how does the Signal/Background (HRP [1]; [8]) read?
Its Signal/Background is 953.

With `c1ccc(CSC(SCc2ccccc2)=C2c3ccccc3N(c3ccccc3)c3ccccc32)cc1` [Compound 3] as the molecule, how does the generation of chemiluminescence (peroxidase) read?
The generation of chemiluminescence was “Compounds 3, 4 and 6 were obtained as mixtures of double bond isomers. Each of these compounds generates chemiluminescence in the present invention”.

For `CCCCCCCCSC(SC)=C1c2ccccc2N(c2ccccc2)c2ccccc21` [Compound 6], which generation of chemiluminescence (peroxidase) is on record?
The generation of chemiluminescence was “Compounds 3, 4 and 6 were obtained as mixtures of double bond isomers. Each of these compounds generates chemiluminescence in the present invention”.

For `CCCCCCCCSC(SCCCS(=O)(=O)[O-])=C1c2ccccc2N(c2ccccc2)c2ccccc21.[Li+]` [Compound 13], which Signal/Background (HRP [1]; [8]) is on record?
Its Signal/Background is 7626.

Which Signal/Background (HRP [3]) does the source give for `CSC(SCCCS(=O)(=O)[O-])=C1c2ccccc2N(Cc2ccc(Cl)cc2)c2ccccc21.[Na+]` [Compound 28] here?
Its Signal/Background is 6717.

Which Signal/Background (HRP [3]) does the source give for `COc1ccc(CN2c3ccccc3C(=C(SC)SCCCS(=O)(=O)[O-])c3ccccc32)cc1.[Na+]` [Compound 29] here?
The Signal/Background was 6621.

For `O=S(=O)([O-])CCCSC(SCc1ccccc1)=C1c2ccccc2N(Cc2ccccc2)c2ccccc21.[Na+]` [Compound 38], which Signal/Background (HRP [3]) is on record?
The Signal/Background was 26000.

Which Signal/Background (HRP [4]; [9]) does the source give for `CSC(SC)=C1c2ccccc2N(Cc2ccc(O)cc2)c2ccccc21` [Compound 40] here?
Its Signal/Background is 4011.

Which Signal/Background (HRP [4]; [9]) does the source give for `O=S(=O)([O-])CCCSC(SCc1ccc(Cl)cc1)=C1c2ccccc2N(Cc2ccccc2)c2ccccc21.[Na+]` [Compound 41] here?
The Signal/Background was 14000.

With `O=S(=O)([O-])CCCSC(SCc1ccccc1)=C1c2ccccc2N(c2ccccc2)c2ccccc21.[Na+]` [Compound 42] as the molecule, how does the Signal/Background (HRP [4]; [9]) read?
The Signal/Background was 9100.

Which Signal/Background (HRP [4]; 0.3 mM test compound) does the source give for `OC1CSC(=C2c3ccccc3N(c3ccccc3)c3ccccc32)SC1` (centres unmarked) [Compound 45] here?
Its Signal/Background is 2102.

For `O=S(=O)([O-])CCCOC1CSC(=C2c3ccccc3N(Cc3ccccc3)c3ccccc32)SC1.[Na+]` (centres unmarked) [Compound 47], which Signal/Background (HRP [4]; [9]) is on record?
The Signal/Background was 7228.

Which Signal/Background (HRP [4]; [9]) does the source give for `O=P([O-])([O-])OCCCOC1CSC(=C2c3ccccc3N(Cc3ccccc3)c3ccccc32)SC1.[Na+].[Na+]` (centres unmarked) [Compound 48] here?
The Signal/Background was 4219.

Which “solubility in the aqueous formulation” value [5] does the source give for `c1ccc(CN2c3ccccc3C(=C3SCCOCCOCCOCCOCCS3)c3ccccc32)cc1` [Compound 49] here?
Its value is “very poorly soluble”.

What about the Signal/Background (HRP [4]; 0.05 mM test compound) of the same molecule?
Its Signal/Background is 4853.

For `O=S(=O)([O-])CCCOCCCN1c2ccccc2C(=C2Sc3ccccc3S2)c2ccccc21.[Na+]` [Compound 50], which Signal/Background (HRP [4]; 0.3 mM test compound) is on record?
The Signal/Background was 1651.

Which “solubility in the aqueous formulation” value [5] does the source give for `CN1c2ccccc2C(=C2Sc3ccccc3S2)c2ccccc21` [Compound 51] here?
Its value is “very poorly soluble”.

And the Signal/Background (HRP [4]; 0.05 mM test compound)?
Its Signal/Background is 4264.

Which results are given for `O=S(=O)([O-])CCCOCCCSC(SCCCO)=C1c2ccccc2N(Cc2ccccc2)c2ccccc21.[Na+]` [Compound 52]?
rise of light to maximum intensity (HRP [6]): reached maximum intensity rapidly; Signal/Background (HRP [4]; 0.15 mM test compound): 5840

Which results are given for `CSC(SCCCOCCCS(=O)(=O)[O-])=C1c2ccccc2N(Cc2ccccc2)c2ccccc21.[Na+]` [Compound 53]?
working solution composition after storage (HRP [7]; four months at 4° C.): unchanged; reagent performance on storage of working solution (HRP [7]; up to three weeks at room temperature, 0.05 mM substrate): no deterioration of reagent performance; rise of light to maximum intensity (HRP [6]): reached maximum intensity rapidly; Signal/Background (HRP [4]; 0.15 mM test compound): 5742

For `CSC(SCCCSCCCS(=O)(=O)[O-])=C1c2ccccc2N(c2ccccc2)c2ccccc21.[Na+]` [Compound 54], which Signal/Background (HRP [4]; 0.15 mM test compound) is on record?
Its Signal/Background is 2502.

Which Signal/Background (HRP [4]; 0.3 mM test compound) does the source give for `CSC(SCCCOS(=O)(=O)[O-])=C1c2ccccc2N(Cc2ccccc2)c2ccccc21.[Na+]` [Compound 55] here?
Its Signal/Background is 5408.

With `CN1c2ccccc2C(=C(OP(=O)([O-])[O-])Sc2ccccc2)c2ccccc21.[Na+].[Na+]` [Ref. 1, reference compound] as the molecule, how does the Signal/Background (HRP [1]; Ref. 1 formulation: 3.3×10^−4 M, 0.05 M tris pH 8.6, 0.25 mM urea peroxide, 0.05 mM p-phenylphenol) read?
Its Signal/Background is 53.

And the “chemiluminescence intensity and exposure needed, compared with the compound 1 reagent” value (HRP-labeled antibody; β-galactosidase)?
The value was “lower intensity chemiluminescence and required longer exposures”.

And the “lower abundance bands able to be imaged” value (HRP-labeled antibody; β-galactosidase)?
Its value is “not possible to image”.

For `COC(Sc1ccccc1)=C1c2ccccc2N(C)c2ccccc21` [Ref. 2, reference compound], which Signal/Background (HRP [1]; [8]) is on record?
The Signal/Background was 325.
